Paper PMC8286840, “Identifying SARS-CoV-2 antiviral compounds by screening for small molecule inhibitors of Nsp3 papain-like protease” (Biochemical Journal, 2021)
Counter-ions that a name gives are not always drawn. Like-named read-outs stand apart in the source and are kept apart here.

Legend:
[1] = target: T1, SARS-CoV-2 PLpro (nsp3 1564–1878) (Severe acute respiratory syndrome coronavirus 2, UniProt P0DTD1); test: biochemical; design: FRET-quenched peptide (Pro3) cleavage by PLpro, 10 min pre-incubation, slope over 20 min, normalised to no-compound control; details: low concentration screen, read-out: % of control remaining
[2] = target: T1, SARS-CoV-2 PLpro (nsp3 1564–1878); test: biochemical; design: FRET-quenched peptide (Pro3) cleavage by PLpro, 10 min pre-incubation, slope over 20 min, normalised to no-compound control; details: high concentration screen, read-out: % of control remaining

COC(=O)[C@H]1[C@H]2C[C@H]3c4[nH]c5ccccc5c4CCN3C[C@@H]2CC[C@@H]1O [Corynanthine]
remaining activity at 1.25 µM ([1]; Well no.=3795): 97.4%
remaining activity at 3.75 µM ([2]; Well no.=3795): 103%

C=C1C(=O)O[C@@H]2/C=C(\C)CC/C=C(\C)CC[C@@H]12 [Costunolide]
remaining activity at 1.25 µM ([1]; Well no.=5230): 101%
remaining activity at 1.25 µM ([1]; Well no.=6634): 102%
remaining activity at 3.75 µM ([2]; Well no.=5230): 99.1%
remaining activity at 3.75 µM ([2]; Well no.=6634): 101%

CN1C(=O)CC[C@H]1c1cccnc1 [Cotinine]
remaining activity at 1.25 µM ([1]; Well no.=7163): 97.7%
remaining activity at 3.75 µM ([2]; Well no.=7163): 96.3%

CO[C@H]1[C@H](OC(=O)c2ccc(C)[nH]2)[C@H](O)[C@@H](Oc2ccc3c(O)c(NC(=O)c4c[nH]c(C(=O)Nc5c(O)c6ccc(O[C@H]7OC(C)(C)[C@@H](OC)[C@H](OC(=O)c8ccc(C)[nH]8)[C@@H]7O)c(C)c6oc5=O)c4C)c(=O)oc3c2C)OC1(C)C [Coumermycin A1]
remaining activity at 1.25 µM ([1]; Well no.=3175): 105%
remaining activity at 3.75 µM ([2]; Well no.=3175): 104%

O=c1oc2cc(O)ccc2c2oc3cc(O)ccc3c12 [Coumestrol]
remaining activity at 1.25 µM ([1]; Well no.=3514): 100%
remaining activity at 3.75 µM ([2]; Well no.=3514): 93.2%

CN(CC(=O)O)C(=N)N [Creatine]
remaining activity at 1.25 µM ([1]; Well no.=7457): 101%
remaining activity at 3.75 µM ([2]; Well no.=7457): 103%

CN1CC(=O)NC1=N [Creatinine]
remaining activity at 1.25 µM ([1]; Well no.=5324): 96.6%
remaining activity at 1.25 µM ([1]; Well no.=6967): 104%
remaining activity at 3.75 µM ([2]; Well no.=5324): 92.2%
remaining activity at 3.75 µM ([2]; Well no.=6967): 101%

C[C@@H](Oc1cc(-c2cnn(C3CCNCC3)c2)cnc1N)c1c(Cl)ccc(F)c1Cl [Crizotinib]
remaining activity at 1.25 µM ([1]; Well no.=5612): 99.8%
remaining activity at 3.75 µM ([2]; Well no.=5612): 101%

CN(C)c1ccc(C(=C2C=CC(=[N+](C)C)C=C2)c2ccc(N(C)C)cc2)cc1 [Crystal violet]
remaining activity at 1.25 µM ([1]; Well no.=5000): 101%
remaining activity at 3.75 µM ([2]; Well no.=5000): 101%

CC(C)(OO)c1ccccc1 [Cumene hydroperoxide]
remaining activity at 1.25 µM ([1]; Well no.=3843): 103%
remaining activity at 3.75 µM ([2]; Well no.=3843): 100%

COc1cc(/C=C/C(=O)CC(=O)/C=C/c2ccc(O)c(OC)c2)ccc1O [Curcumin]
remaining activity at 1.25 µM ([1]; Well no.=3177): 112%
remaining activity at 1.25 µM ([1]; Well no.=3949): 106%
remaining activity at 3.75 µM ([2]; Well no.=3177): 105%
remaining activity at 3.75 µM ([2]; Well no.=3949): 102%

C=C1C[C@@]2(O)O[C@@]3(C[C@H]2C(C)C)[C@@H](C)CC[C@@H]13 [Curcumol]
remaining activity at 1.25 µM ([1]; Well no.=5202): 90.5%
remaining activity at 3.75 µM ([2]; Well no.=5202): 85.6%

CC(CN(C)C)CN1c2ccccc2Sc2ccc(C#N)cc21 (stereo not shown) [Cyamemazine]
remaining activity at 1.25 µM ([1]; Well no.=5789): 102%
remaining activity at 3.75 µM ([2]; Well no.=5789): 105%

Nc1nc2c(ncn2[C@@H]2O[C@@H]3COP(=O)(O)O[C@H]4[C@@H](O)[C@H](n5cnc6c(=O)[nH]c(N)nc65)O[C@@H]4COP(=O)(O)O[C@H]3[C@H]2O)c(=O)[nH]1 [Cyclic-di-GMP]
remaining activity at 1.25 µM ([1]; Well no.=7774): 103%
remaining activity at 1.25 µM ([1]; Well no.=8405): 101%
remaining activity at 3.75 µM ([2]; Well no.=7774): 102%
remaining activity at 3.75 µM ([2]; Well no.=8405): 100%

NCCCC[C@@H]1NC(=O)[C@@H](Cc2ccccc2)NC(=O)[C@H](CC(=O)O)NC(=O)CNC(=O)[C@H](CCCN=C(N)N)NC1=O [Cyclo(-RGDfK)]
remaining activity at 1.25 µM ([1]; Well no.=8410): 96.3%
remaining activity at 3.75 µM ([2]; Well no.=8410): 96.9%

NCCCC[C@@H]1NC(=O)[C@@H](Cc2ccc(O)cc2)NC(=O)[C@H](CC(=O)O)NC(=O)CNC(=O)[C@H](CCCN=C(N)N)NC1=O [Cyclo(RGDyK) trifluoroacetate]
remaining activity at 1.25 µM ([1]; Well no.=8698): 101%
remaining activity at 3.75 µM ([2]; Well no.=8698): 97.8%

O=C1N[C@@H](Cc2cnc[nH]2)C(=O)N2CCC[C@@H]12 [Cyclo(his-pro)]
remaining activity at 1.25 µM ([1]; Well no.=6245): 106%
remaining activity at 3.75 µM ([2]; Well no.=6245): 105%

CN(C)CCC=C1c2ccccc2C=Cc2ccccc21 [Cyclobenzaprine (hydrochloride)]
remaining activity at 1.25 µM ([1]; Well no.=6284): 106%
remaining activity at 3.75 µM ([2]; Well no.=6284): 105%

CN(C)CCC=C1c2ccccc2C=Cc2ccccc21 [Cyclobenzaprine hydrochloride]
remaining activity at 1.25 µM ([1]; Well no.=320): 92.5%
remaining activity at 3.75 µM ([2]; Well no.=320): 93.2%

N=c1ccn2c(n1)O[C@H]1[C@H](O)[C@@H](CO)O[C@H]12 [Cyclocytidine]
remaining activity at 1.25 µM ([1]; Well no.=1936): 96.5%
remaining activity at 3.75 µM ([2]; Well no.=1936): 103%

C[C@@H]1C[C@@H]([C@H](O)CC2CC(=O)NC(=O)C2)C(=O)[C@@H](C)C1 [Cycloheximide]
remaining activity at 1.25 µM ([1]; Well no.=3179): 98.2%
remaining activity at 3.75 µM ([2]; Well no.=3179): 98.5%

CC1=C2C[C@H]3[C@@H](CC=C4C[C@@H](O)CC[C@@]43C)[C@@H]2CC[C@]12O[C@@H]1C[C@H](C)CN[C@H]1[C@H]2C [Cyclopamine]
remaining activity at 1.25 µM ([1]; Well no.=3181): 107%
remaining activity at 3.75 µM ([2]; Well no.=3181): 106%

CC(=O)C1=C(O)[C@@H]2[C@H]3c4c[nH]c5cccc(c45)C[C@H]3C(C)(C)N2C1=O [Cyclopiazonic acid]
remaining activity at 1.25 µM ([1]; Well no.=3183): 102%
remaining activity at 3.75 µM ([2]; Well no.=3183): 104%

NS(=O)(=O)c1cc2c(cc1Cl)NC(C1CC3C=CC1C3)NS2(=O)=O (stereo not shown) [Cyclothiazide]
remaining activity at 1.25 µM ([1]; Well no.=387): 104%
remaining activity at 3.75 µM ([2]; Well no.=387): 101%

CN1CCC(=C2c3ccccc3C=Cc3ccccc32)CC1 [Cyproheptadine (hydrochloride sesquihydrate)]
remaining activity at 1.25 µM ([1]; Well no.=6185): 97.8%
remaining activity at 3.75 µM ([2]; Well no.=6185): 95.9%

CN1CCC(=C2c3ccccc3C=Cc3ccccc32)CC1 [Cyproheptadine (hydrochloride)]
remaining activity at 1.25 µM ([1]; Well no.=6994): 97.6%
remaining activity at 3.75 µM ([2]; Well no.=6994): 99.7%

CN1CCC(=C2c3ccccc3C=Cc3ccccc32)CC1 [Cyproheptadine hydrochloride]
remaining activity at 1.25 µM ([1]; Well no.=38): 93.9%
remaining activity at 3.75 µM ([2]; Well no.=38): 91.5%

CN1CCC(=C2c3ccccc3C=Cc3ccccc32)CC1 [Cyproheptadine]
remaining activity at 1.25 µM ([1]; Well no.=2300): 97.2%
remaining activity at 3.75 µM ([2]; Well no.=2300): 98.2%

CC(=O)O[C@]1(C(C)=O)CC[C@H]2[C@@H]3C=C(Cl)C4=CC(=O)[C@@H]5C[C@@H]5[C@]4(C)[C@H]3CC[C@@]21C [Cyproterone acetate]
remaining activity at 1.25 µM ([1]; Well no.=316): 95.3%
remaining activity at 1.25 µM ([1]; Well no.=1934): 99.5%
remaining activity at 3.75 µM ([2]; Well no.=316): 95.7%
remaining activity at 3.75 µM ([2]; Well no.=1934): 99.8%

NCCSSCCN [Cystamine dihydrochloride]
remaining activity at 1.25 µM ([1]; Well no.=280): 97%
remaining activity at 3.75 µM ([2]; Well no.=280): 99.9%

NCCS [Cysteamine hydrochloride]
remaining activity at 1.25 µM ([1]; Well no.=884): 105%
remaining activity at 3.75 µM ([2]; Well no.=884): 103%

Nc1ccn([C@@H]2O[C@H](CO)[C@@H](O)[C@@H]2O)c(=O)n1 [Cytarabine]
remaining activity at 1.25 µM ([1]; Well no.=1938): 99.8%
remaining activity at 1.25 µM ([1]; Well no.=8847): 108%
remaining activity at 3.75 µM ([2]; Well no.=1938): 98.4%
remaining activity at 3.75 µM ([2]; Well no.=8847): 105%
